Test results reported in US20070116743A1, “Dietary supplement enhancing the muscular energy metabolism, comprising an alkanoyl carnitine and ribose” (Sigma-Tau Industrie Farmaceutiche Riunite S.p.A., priority 2000, published 2007).

Tests used:
[1] = tested on: papillary muscle of rabbit heart; experiment: Test of ATP concentrations in papillary muscle of heart subjected to anoxia; assay type: in vivo, New Zealand rabbits; conditions: summary of Table 1
Text: Test of ATP Concentrations in Heart Subjected to Anoxia In this test the technique adopted was the one using papillary muscle of rabbit heart perfused and subjected to anoxia which, as is known, leads to an impoverishment of its ATP energy reserves. […] At the end of the third day of treatment, all the animals were sacrificed and their hearts excised. Sections of papillary muscle measuring 1 mm in diameter and 4-5 mm in thickness were isolated from the excised hearts. The isolated papillary muscle was perfused in a thermostatic bath with a saturated 100% O2 solution. The anoxic state was obtained by introducing 100% N2 instead of O2 into the bath. For the measurement of the ATP concentrations in the […] muscle the method described by […] was adopted ([…]. Methods in Enzymology 111 N.Y. Acad. Press., 879, 1957).

[2] = tested on: ventricular arrhythmias induced by left coronary ligation in the rat; experiment: Experimental myocardial anoxia test: ventricular arrhythmias induced by left coronary ligation; assay type: in vivo; conditions: for N. of ectopic contractions during 30 minutes after ligation / Start of arrhythmias after: rat, left coronary ligation, slow injection into left ventricle 15 minutes before ligation (100 mg/kg each agent; carnitine combination 25 mg/kg per component); for Reduction in number of ectopic contractions compared to controls (in words): summary of Table 2
Text: Experimental Myocardial Anoxia Test
Adopting the technique described by Selych (Selych et al., Angiology, 11, 398, 1960) and modified by Clark (Clark C., J. Pharmacol. Methods, 3, 357, 1980), these tests were used to evaluate the protective activity of isovaleryl L-carnitine, propionyl L-carnitine, carnitine combination, ribose and various combinations of the same against ventricular arrhythmias induced by left coronary ligation in the rat.
Coronary occlusion and the resulting myocardial anoxia lead, after 5-8 minutes, to the onset of arrhythmias. In these tests, ventricular ectopic contractions were counted for a period of 30 minutes after ligation both in control rats and in rats that had received slow injections into the left ventricle, 15 minutes before ligation, of a solution containing isovaleryl L-carnitine alone (100 mg/kg), propionyl L-carnitine alone (100 mg/kg), or carnitine combination alone consisting of propionyl L-carnitne (25 mg/kg), acetyl L-carnitine (25 mg/kg) and isovaleryl L-carnitine (25 mg/kg) or ribose alone (100 mg/kg), or a combination of ribose plus isovaleryl L-carnitine or propionyl L-carnitine or a combination of ribose plus carnitine combination at the doses described above.

Compound	Protection of ATP in papillary muscle against anoxia (in words) [1]	N. of ectopic contractions during 30 minutes after ligation [2]	Start of arrhythmias after [2] [min]	Reduction in number of ectopic contractions compared to controls (in words) [2]
CC(C)CC(=O)O[C@H](CC(=O)[O-])C[N+](C)(C)C [Isovaleryl L-carnitine]	partly protecting	860 ± 75	5 to 7	only slight reductions
CCC(=O)O[C@H](CC(=O)[O-])C[N+](C)(C)C [Propionyl L-carnitine]	partly protecting	830 ± 86	5 to 8	only slight reductions
O=C[C@H](O)[C@H](O)[C@H](O)CO [Ribose]	partly protecting	855 ± 110	5 to 7	only slight reductions
